“Also recorded” adds a separate entry of the source.
Tests used:
pig left atrium [1] = experiment: Effect of Kv1.5 blockers on atrial contractility in anesthetized pigs, sinus rhythm; assay type: in vivo, German Landrace pigs; settings: 1 mg/kg i.v.
Procedure: (§1) A) Test of the Effect of Kv1.5 Blockers on Atrial Contractility in Anesthetized Pigs
(§2) Material and methods: German Landrace pigs were premedicated by an intramuscular injection of 2.5-3.5 mg/kg each of xylazine, tiletamine and zolazepam in a mixing syringe. The anesthesia was induced with pentobarbital (approx. 30 mg/kg i.v.) and maintained by continuous infusion of pentobarbital (12-17 mg/kg/h).
(§3) After induction of anesthesia and after a tracheotomy, the animals were intubated and ventilated with a mixture of ambient air with 40% oxygen.
(§4) The ventilation rate and volume were governed by regularly measured blood gas and pH levels. The body temperature was continuously recorded and controlled by a heated underlay and/or red light lamp and/or warming of the breathed air to keep it constant (about 37-38° C.).
The following blood vessels of the pigs were exposed and cannulated:
External jugular vein (anesthesia infusion), carotid artery (introduction of a tip manometer catheter in the left ventricle to record the pressure there), lateral saphenous vein (dosage of test substance), epigastrica cranialis superficialis vein (fluid infusion), femoral artery (peripheral blood pressure recording) and femoral vein (introduction of MAP catheter right atrium).
The parameters responsible for the contractility are determined using two ultrasonic sensors on the left atrium (P/N JP 5-2, Triton Technology®) [references 1 and 2]. These two piezoelectric sensors are implanted in the cranio-caudal direction through punctuate incisions at the extreme edge of the atrium. The incisions were each closed with a U stitch (2-0 Vicryl®).
The two ultrasonic sensors were than connected to the evaluation unit. In addition, a pressure-measuring catheter was implanted at the ventral edge of the atrium in order to record the left atrial pressure.
The left atrial systolic shortening (LASS) was determined from the atrial diameter at the start of the active atrial pressure curve and the minimum diameter. Since the atrial contractility depends on the initial extension, the left atrial systolic shortening was divided by the value at the start of active atrial contraction (LASS index). The maximum steepness of the contraction curve was determined by importing the raw data points to Microsoft Excel for calculation of the maximum steepness of the curve. In order to exclude breathing-related variations, at least 10 cardiac cycles were analyzed. This parameter, which likewise indicates an improved contractility, is referred to as LASS steepness.
Recording of the initial values was followed by infusion for 10 minutes of the vehicle which was used later and is composed of 0.5 ml of DMSO, 2.5 ml of PEG and 2.0 ml of glucose G20. […]

[2] = tested on: pigs with pericardial air instillation; experiment: Left ventricular ejection (cardiac output) in a model of diastolic dysfunction, pericardial air instillation; assay type: in vivo; settings: for Cardiac output, % of the initial value before example 1 / Cardiac output, % of the initial value before instillation / Cardiac output, average: 3 mg/kg i.v. over 30 min
Procedure: B) Improved Left Ventricular Ejection after Kv1.5 Blockers in a Model of Diastolic Dysfunction Methods: Pigs were anesthetized as described in A) and thoracotomized. A flow sensor was attached over the aorta to measure the cardiac output. In a stable hemodynamic situation, air (approx. 30 ml) was instilled into the pericardial using a cannula. The intention of pericardial air instillation is to impede ventricular filling, which eventually leads to a decreased cardiac output (diastolic heart failure). […] The pericardial air instillation leads to a distinct reduction in the cardiac output (table 3).

pig left atrium [3] = experiment: Effect on atrial contractility in anesthetized pigs after one hour of induced atrial fibrillation; assay type: in vivo, German Landrace pigs
Procedure: as §1, §2, §3
In a further series of experiments, the test substance was administered only after one hour of atrial fibrillation induced by persistent high-frequency stimulation (1200 beats/min) of the right atrium. In this case, the parameters of atrial contractility were recorded before/after the period of fibrillation and after administration of the test substance and compared with those after the vehicle control.
as §4
The following blood vessels of the pigs were exposed and cannulated: […]
The parameters responsible for the contractility are determined using two ultrasonic sensors on the left atrium (P/N JP 5-2, Triton Technology®) [references 1 and 2]. […]
The left atrial systolic shortening (LASS) was determined from the atrial diameter at the start of the active atrial pressure curve and the minimum diameter. […] The maximum steepness of the contraction curve was determined by importing the raw data points to Microsoft Excel for calculation of the maximum steepness of the curve. In order to exclude breathing-related variations, at least 10 cardiac cycles were analyzed. […]

[4] = time not given (start of infusion)

CCCCS(=O)(=O)Nc1ccccc1C(=O)N[C@H](CC)c1ccc(OC)nc1 (single isomer, unassigned) [Example 5]
LASS, increase in % (pig left atrium [1]; after vs before administration): 68%
LASS, absolute values, after administration (pig left atrium [1]; n = 8): 8.25 ± 1.43

COc1ccc(CC(=O)NCc2ccccc2-c2ccccc2C(=O)NCCc2cccnc2)cc1 [Example 1, N-(2-pyridin-3-ylethyl)-2′-{[2-(4-methoxyphenyl)acetylamino]-methyl}biphenyl-2-carboxamide]
Cardiac output, % of the initial value before example 1 ([2]; 2′): 102%
Cardiac output, % of the initial value before instillation ([2]; 2′): 72%
Cardiac output, average ([2]; 2′): 1.55 L/min
Cardiac output, % of the initial value before example 1 ([2]; 5′): 104%
Cardiac output, % of the initial value before instillation ([2]; 5′): 73%
Cardiac output, average ([2]; 5′): 1.58 L/min
Cardiac output, % of the initial value before example 1 ([2]; 10′): 111%
Cardiac output, % of the initial value before instillation ([2]; 10′): 78%
Cardiac output, average ([2]; 10′): 1.69 L/min
Cardiac output, % of the initial value before example 1 ([2]; 15′): 117%
Cardiac output, % of the initial value before instillation ([2]; 15′): 82%
Cardiac output, average ([2]; 15′): 1.78 L/min
Cardiac output, % of the initial value before example 1 ([2]; 20′): 121%
Cardiac output, % of the initial value before instillation ([2]; 20′): 84%
Cardiac output, average ([2]; 20′): 1.84 L/min
Cardiac output, % of the initial value before example 1 ([2]; 25′): 123%
Cardiac output, % of the initial value before instillation ([2]; 25′): 86%
Cardiac output, average ([2]; 25′): 1.88 L/min
Cardiac output, % of the initial value before example 1 ([2]; 30′): 125%
Cardiac output, % of the initial value before instillation ([2]; 30′): 87%
Cardiac output, average ([2]; 30′): 1.90 L/min
Cardiac output, % of the initial value before example 1 ([2]; 35′): 120%
Cardiac output, % of the initial value before instillation ([2]; 35′): 85%
Cardiac output, average ([2]; 35′): 1.83 L/min
Cardiac output, % of the initial value before example 1 ([2]; 40′): 117%
Cardiac output, % of the initial value before instillation ([2]; 40′): 83%
Cardiac output, average ([2]; 40′): 1.79 L/min
Cardiac output, % of the initial value before example 1 ([2]; 50′): 116%
Cardiac output, % of the initial value before instillation ([2]; 50′): 82%
Cardiac output, average ([2]; 50′): 1.76 L/min
Cardiac output, % of the initial value before example 1 ([2]; 60′): 111%
Cardiac output, % of the initial value before instillation ([2]; 60′): 79%
Cardiac output, average ([2]; 60′): 1.69 L/min
Cardiac output, % of the initial value before example 1 ([2]; 70′): 108%
Cardiac output, % of the initial value before instillation ([2]; 70′): 78%
Cardiac output, average ([2]; 70′): 1.65 L/min
Cardiac output, % of the initial value before example 1 [2, 4]: 100%
Cardiac output, % of the initial value before instillation [2, 4]: 71%
Cardiac output, average [2, 4]: 1.53 L/min
maximum increase in the reduced cardiac output ([2]; 3 mg/kg infused in 30 min, n=11): 25%
LACC steepness, absolute value, after administration (pig left atrium [1]): -0.152 ± 0.02 cm/s
LACC steepness, increase in % (pig left atrium [1]; after vs before administration): +38.2%
LACC steepness, absolute values (pig left atrium [3]; 1 mg/kg i.v., after 1 hour atrial fibrillation): -0.197 cm/s
LACC steepness, in % of the initial value (pig left atrium [3]; 1 mg/kg i.v., after 1 hour atrial fibrillation, initial value = before AF): 112.6%
atrial function / contractility, in words (pig left atrium [3]; after one hour of atrial fibrillation): statistically significant improvement; also recorded: above the base line level

Source: patent publication US20070043091A1, “Kv1.5-BLOCKER FOR THE SELECTIVE INCREASE OF ATRIAL CONTRACTILITY AND TREATMENT OF CARDIAC [sequence]” (SANOFI-AVENTIS DEUTSCHLAND GMBH, priority 2004, published 2007)
